Source: US10273222B2 (CELGENE QUANTICEL RESEARCH, INC., priority 2013, dated 2019)

Key:
Jarid1A = Jarid1A (Homo sapiens (Human), UniProt P29375); assay: Jarid1A in vitro enzyme inhibition assay (TR-FRET); type: biochemical
Description: The enzymatic assay of Jarid1A activity is based upon Time Resolved-Fluorescence Resonance Energy Transfer (TR-FRET) detection.

Jarid1B = Jarid1B (Homo sapiens (Human), UniProt Q9UGL1); assay: Jarid1B in vitro enzyme inhibition assay (TR-FRET); type: biochemical
Description: This assay determines the ability of a test compound to inhibit Jarid1A, Jarid1B, JMJD2C, and JMJD2A demethylase activity.
The ability of test compounds to inhibit the activity of Jarid1B was determined in 384-well plate format under the following reaction conditions: 0.8 nM Jarid1B, 300 nM H3K4me3-biotin labeled peptide (Anaspec cat #64357), 2 μM alpha-ketoglutaric acid in assay buffer of 50 mM HEPES, pH7.3, 0.005% Brij35, 0.5 mM TCEP, 0.2 mg/ml BSA, 50 μM sodium L-ascorbate, and 2 μM ammonium iron(II) sulfate. Reaction product was determined quantitatively by TR-FRET after the addition of detection reagent Phycolink Streptavidin-allophycocyanin (Prozyme) and Europium-anti-mono- or di-methylated histone H3 lysine 4 (H3K4me1-2) antibody (PerkinElmer) in the presence of 5 mM EDTA in LANCE detection buffer (PerkinElmer) at a final concentration of 25 nM and 1 nM, respectively.
The assay reaction was initiated by the following: 2 μl of the mixture of 900 nM H3K4me3-biotin labeled peptide and 6 μM alpha-ketoglutaric acid with 2 μl of 11-point serial diluted inhibitor in 3% DMSO was added to each well of the plate, followed by the addition of 2 μl of 2.4 nM Jarid1B to initiate the reaction. The reaction mixture was incubated at room temperature for 30 minutes, and terminated by the addition of 6 μl of 5 mM EDTA in LANCE detection buffer containing 50 nM Phycolink Streptavidin-allophycocyanin and 2 nM Europium-anti-H3K4me1-2 antibody. Plates were read by EnVisionMultilabel Reader in TR-FRET mode (excitation at 320 nm, emission at 615 nm and 665 nm) after 1 hour incubation at room temperature. A ratio was calculated (665/615) for each well and fitted to determine inhibition constant (IC50).

JMJD2C = JMJD2C (Homo sapiens (Human), UniProt Q9H3R0); assay: JMJD2C in vitro enzyme inhibition assay (TR-FRET); type: biochemical
Description: This assay determines the ability of a test compound to inhibit Jarid1A, Jarid1B, JMJD2C, and JMJD2A demethylase activity. […] Baculovirus expressed JMJD2C (GenBank Accession #BC143571, AA 2-372) was purchased from BPS Bioscience (Cat#50105).
The ability of test compounds to inhibit the activity of JMJD2C was determined in 384-well plate format under the following reaction conditions: 0.3 nM JMJD2C, 300 nM H3K9me3-biotin labeled peptide (Anaspec cat #64360), 2 μM alpha-ketoglutaric acid in assay buffer of 50 mM HEPES, pH7.3, 0.005% Brij35, 0.5 mM TCEP, 0.2 mg/ml BSA, 50 μM sodium L-ascorbate, and 2 μM ammonium iron(II) sulfate. Reaction product was determined quantitatively by TR-FRET after the addition of detection reagent Phycolink Streptavidin-allophycocyanin (Prozyme) and Europium-anti-di-methylated histone H3 lysine 9 (H3K9me2) antibody (PerkinElmer) in the presence of 5 mM EDTA in LANCE detection buffer (PerkinElmer) at a final concentration of 50 nM and 1 nM, respectively.
The assay reaction was initiated by the following: 2 μl of the mixture of 900 nM H3K9me3-biotin labeled peptide and 6 μM alpha-ketoglutaric acid with 2 μl of 11-point serial diluted inhibitor in 3% DMSO were added to each well of the plate, followed by the addition of 2 μl of 0.9 nM JMJD2C to initiate the reaction. The reaction mixture was incubated at room temperature for 30 minutes, and terminated by the addition of 6 μl of 5 mM EDTA in LANCE detection buffer containing 100 nM Phycolink Streptavidin-allophycocyanin and 2 nM Europium-anti-H3K9me2 antibody. Plates were read by EnVisionMultilabel Reader in TR-FRET mode (excitation at 320 nm, emission at 615 nm and 665 nm) after 1 hour incubation at room temperature. A ratio was calculated (665/615) for each well and fitted to determine inhibition constant (IC50).

JMJD2A = JMJD2A (Homo sapiens (Human), UniProt O75164); assay: JMJD2A in vitro enzyme inhibition assay (TR-FRET); type: biochemical
Description: This assay determines the ability of a test compound to inhibit Jarid1A, Jarid1B, JMJD2C, and JMJD2A demethylase activity. […] Baculovirus expressed JMJD2A (GenBank Accession #NM_014663, AA 1-350) was purchased from BPS Bioscience (Cat#50123).
The ability of test compounds to inhibit the activity of JMJD2A was determined in 384-well plate format under the following reaction conditions: 2 nM JMJD2A, 300 nM H3K9me3-biotin labeled peptide (Anaspec cat #64360), 2 μM alpha-ketoglutaric acid in assay buffer of 50 mM HEPES, pH7.3, 0.005% Brij35, 0.5 mM TCEP, 0.2 mg/ml BSA, 50 μM sodium L-ascorbate, and 2 μM ammonium iron(II) sulfate. Reaction product was determined quantitatively by TR-FRET after the addition of detection reagent Phycolink Streptavidin-allophycocyanin (Prozyme) and Europium-anti-di-methylated histone H3 lysine 9 (H3K9me2) antibody (PerkinElmer) in the presence of 5 mM EDTA in LANCE detection buffer (PerkinElmer) at a final concentration of 50 nM and 1 nM, respectively.
The assay reaction was initiated by the following: 2 μl of the mixture of 900 nM H3K9me3-biotin labeled peptide and 6 μM alpha-ketoglutaric acid with 2 μl of 11-point serial diluted inhibitor in 3% DMSO were added to each well of plate, followed by the addition of 2 μl of 6 nM JMJD2A to initiate the reaction. The reaction mixture was incubated at room temperature for 30 minutes, and terminated by the addition of 6 μl of 5 mM EDTA in LANCE detection buffer containing 100 nM Phycolink Streptavidin-allophycocyanin and 2 nM Europium-anti-H3K9me2 antibody. Plates were read by EnVisionMultilabel Reader in TR-FRET mode (excitation at 320 nm, emission at 615 nm and 665 nm) after 1 hour incubation at room temperature. A ratio was calculated (665/615) for each well and fitted to determine inhibition constant (IC50).

FBXL10 = FBXL10 (Homo sapiens (Human), UniProt Q8NHM5); assay: FBXL10 in vitro enzyme inhibition assay (AlphaScreen); type: biochemical
How it was run: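 AlphaScreen read-out of H3K36me1 product, detected with anti-H3K36me1 antibody plus streptavidin donor and Protein A acceptor beads (final 10 μg/ml) in 50 mM HEPES pH 7.3, 10 mM NaCl, 0.005% Brij35, 5 mM EDTA, 2 mg/ml BSA. Beads incubated 2 h to overnight at room temperature; IC50 derived from AlphaScreen signal.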

KDM5A and KDM5B = assay: In vitro cell-based assay: tri-methyl H3K4 immuno-blotting in ZR-75-1 cells (cellular inhibition of KDM5A/B); settings: ZR-75-1 breast cancer cells, 72 hours, tri-methylated H3K4 level; read-out: IC50 ZR-75-1 cell-MOA
Description: This quantitative immuno-blotting assay measures the amount tri-methylated histone H3 at amino acid Lysine number 4, a specific substrate and product of the direct enzymatic activity of the histone demethylases KDM5A and KDM5B from extracts of the ZR-75-1 breast cancer cell line.
This assay is a fluorometric immunoassay for the quantification of tri-methyl H3K4 extracted from cells treated with test compound and is used as a measure of the cellular inhibition of KDM5A/B.
Extracts were prepared containing all of the cellular histone material using detergent based lysis and sonication methods. These lysates were subsequently normalized for total protein content using a colorimetric bicinchonic acid assay (MicroBCA Pierce/Thermo Scientific). Normalized cell extracts were then subjected to typical immuno-blotting procedures using NuPage reagents (Life Technologies). Electrophoretically separated histones were then transferred and immobilized using polyvinylidene difluoride membrane (Immobilon-FL Millipore). The amount of tri-methylated lysine 4 of histone H3 was detected using an antibody specific to the tri-methylated state (Cell Signaling Technologies) and quantified on an infrared imager using a densitometry software package (Odyssey CLx, Image Studio, Li-Cor). This background subtracted densitometry value was reported as a ration of the GAPDH amount for that sample and then calculated as a percent of the DMSO treated sample. The software package XL-fit (IDBS) was then used to calculate a relative IC50 value for the dilution series of a given test compound according to the equation: fit=(D+((Vmax*(x^n))/((x^n)+(Km^n)))).

Jarid1B, sequence (Q9UGL1 2-751): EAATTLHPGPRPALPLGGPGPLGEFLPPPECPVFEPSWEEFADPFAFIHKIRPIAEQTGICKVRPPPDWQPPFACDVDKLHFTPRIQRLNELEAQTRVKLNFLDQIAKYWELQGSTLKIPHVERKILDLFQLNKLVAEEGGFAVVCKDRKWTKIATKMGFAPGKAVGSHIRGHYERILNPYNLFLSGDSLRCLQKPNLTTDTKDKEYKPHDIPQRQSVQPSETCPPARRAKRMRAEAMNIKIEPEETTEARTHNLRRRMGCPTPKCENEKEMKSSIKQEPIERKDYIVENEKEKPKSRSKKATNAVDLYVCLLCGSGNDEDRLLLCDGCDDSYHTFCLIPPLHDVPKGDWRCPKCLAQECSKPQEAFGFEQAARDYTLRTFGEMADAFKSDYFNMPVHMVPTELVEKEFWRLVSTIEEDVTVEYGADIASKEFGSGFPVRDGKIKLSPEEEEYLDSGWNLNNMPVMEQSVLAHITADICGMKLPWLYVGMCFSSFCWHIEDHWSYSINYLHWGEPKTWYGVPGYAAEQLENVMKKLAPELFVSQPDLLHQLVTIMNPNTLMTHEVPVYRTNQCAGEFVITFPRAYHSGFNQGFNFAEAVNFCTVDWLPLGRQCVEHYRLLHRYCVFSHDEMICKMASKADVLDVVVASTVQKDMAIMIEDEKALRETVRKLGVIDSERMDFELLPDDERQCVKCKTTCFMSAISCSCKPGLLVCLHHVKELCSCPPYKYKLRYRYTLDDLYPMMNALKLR
JMJD2C, sequence (Q9H3R0 2-372): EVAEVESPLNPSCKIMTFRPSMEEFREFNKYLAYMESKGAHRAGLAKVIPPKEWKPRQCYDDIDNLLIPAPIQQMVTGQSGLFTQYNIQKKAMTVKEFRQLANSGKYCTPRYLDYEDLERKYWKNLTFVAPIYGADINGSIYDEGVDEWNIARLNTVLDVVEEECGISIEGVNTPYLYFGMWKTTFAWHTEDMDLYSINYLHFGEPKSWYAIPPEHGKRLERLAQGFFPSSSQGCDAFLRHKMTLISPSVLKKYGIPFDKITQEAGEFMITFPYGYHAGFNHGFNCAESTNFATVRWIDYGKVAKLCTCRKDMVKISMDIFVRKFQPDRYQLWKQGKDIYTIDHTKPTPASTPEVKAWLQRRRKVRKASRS
Jarid1A, sequence (P29375 1-1090): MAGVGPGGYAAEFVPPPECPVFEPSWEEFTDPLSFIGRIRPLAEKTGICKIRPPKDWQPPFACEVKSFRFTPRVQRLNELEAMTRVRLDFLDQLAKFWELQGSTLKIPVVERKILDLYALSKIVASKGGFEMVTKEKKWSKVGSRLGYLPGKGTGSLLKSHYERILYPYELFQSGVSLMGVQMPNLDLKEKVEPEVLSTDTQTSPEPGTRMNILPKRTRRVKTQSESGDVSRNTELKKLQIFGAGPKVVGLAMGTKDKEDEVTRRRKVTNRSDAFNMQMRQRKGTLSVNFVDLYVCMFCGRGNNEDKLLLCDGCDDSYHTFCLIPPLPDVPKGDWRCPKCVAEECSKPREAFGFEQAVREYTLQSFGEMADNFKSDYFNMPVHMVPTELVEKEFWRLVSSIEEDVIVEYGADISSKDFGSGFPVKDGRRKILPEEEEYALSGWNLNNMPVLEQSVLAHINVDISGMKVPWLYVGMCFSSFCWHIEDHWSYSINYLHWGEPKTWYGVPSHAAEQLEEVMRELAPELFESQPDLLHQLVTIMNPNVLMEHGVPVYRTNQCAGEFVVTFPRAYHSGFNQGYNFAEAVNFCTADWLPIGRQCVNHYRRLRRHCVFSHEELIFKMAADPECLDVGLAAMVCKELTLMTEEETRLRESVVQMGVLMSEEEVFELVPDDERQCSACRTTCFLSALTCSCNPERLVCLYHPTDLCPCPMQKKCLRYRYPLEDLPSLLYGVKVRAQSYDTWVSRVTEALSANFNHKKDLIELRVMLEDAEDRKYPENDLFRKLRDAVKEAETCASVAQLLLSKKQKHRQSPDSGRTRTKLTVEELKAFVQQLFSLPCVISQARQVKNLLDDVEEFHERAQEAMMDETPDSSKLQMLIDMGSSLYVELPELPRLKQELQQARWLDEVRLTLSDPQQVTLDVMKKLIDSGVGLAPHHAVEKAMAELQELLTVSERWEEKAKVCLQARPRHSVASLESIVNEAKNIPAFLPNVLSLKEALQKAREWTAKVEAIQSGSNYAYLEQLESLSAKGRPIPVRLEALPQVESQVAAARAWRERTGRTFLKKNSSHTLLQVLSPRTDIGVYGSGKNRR
JMJD2A, sequence (O75164 1-350): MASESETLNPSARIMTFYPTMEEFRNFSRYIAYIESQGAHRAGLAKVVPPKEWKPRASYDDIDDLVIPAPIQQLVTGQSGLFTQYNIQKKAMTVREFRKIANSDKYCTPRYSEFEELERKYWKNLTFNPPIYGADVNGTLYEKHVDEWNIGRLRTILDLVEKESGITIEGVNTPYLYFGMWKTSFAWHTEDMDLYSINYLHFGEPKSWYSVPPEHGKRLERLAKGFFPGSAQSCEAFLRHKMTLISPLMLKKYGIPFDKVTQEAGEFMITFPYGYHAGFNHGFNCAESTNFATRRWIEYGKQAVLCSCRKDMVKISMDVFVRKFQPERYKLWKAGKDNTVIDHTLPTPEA
FBXL10, sequence (Q8NHM5 1-650): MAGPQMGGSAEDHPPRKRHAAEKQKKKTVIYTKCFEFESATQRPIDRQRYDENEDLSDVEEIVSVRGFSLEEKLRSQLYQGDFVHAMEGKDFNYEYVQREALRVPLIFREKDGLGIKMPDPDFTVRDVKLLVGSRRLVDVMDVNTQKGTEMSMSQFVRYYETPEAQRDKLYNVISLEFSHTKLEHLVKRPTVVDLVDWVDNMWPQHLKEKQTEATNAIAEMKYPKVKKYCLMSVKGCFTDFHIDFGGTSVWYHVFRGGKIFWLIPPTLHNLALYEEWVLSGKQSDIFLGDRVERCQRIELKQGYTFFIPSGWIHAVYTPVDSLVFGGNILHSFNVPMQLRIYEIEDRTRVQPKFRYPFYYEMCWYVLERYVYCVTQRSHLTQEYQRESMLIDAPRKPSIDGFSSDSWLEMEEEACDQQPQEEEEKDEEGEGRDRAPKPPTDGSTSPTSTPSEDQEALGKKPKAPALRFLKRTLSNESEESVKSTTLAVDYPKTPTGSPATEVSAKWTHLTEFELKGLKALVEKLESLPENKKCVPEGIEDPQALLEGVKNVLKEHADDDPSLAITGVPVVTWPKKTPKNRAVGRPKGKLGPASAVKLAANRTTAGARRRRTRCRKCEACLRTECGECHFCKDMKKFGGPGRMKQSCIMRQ

Compound	IC50 (Jarid1A)	IC50 (Jarid1B)	IC50 (JMJD2C)	IC50 (JMJD2A)	IC50 (FBXL10)	IC50 (KDM5A and KDM5B)
O=C(O)c1ccnc(-c2cn(C3Cc4ccccc4C3)cn2)c1 [Example 99, 2-[1-(2,3-dihydro-1H-inden-2-yl)imidazol-4-yl]pyridine-4-carboxylic acid]	≤ 100 nM	≤ 100 nM	100 to 1000 nM	100 to 1000 nM	≤ 100 nM	1000 to 10000 nM
Cn1cnc(-c2cc(-c3nn[nH]n3)ccn2)c1 [Example 62, 2-(1-methyl-1H-imidazol-4-yl)-4-(2H-tetrazol-5-yl)pyridine]	100 to 1000 nM	100 to 1000 nM	> 10000 nM	> 10000 nM	≤ 100 nM	> 10000 nM
O=C(O)c1ccnc(-c2cn(CCc3ccccc3C(F)(F)F)cn2)c1 [Example 98, 2-[1-[2-[2-(trifluoromethyl)phenyl]ethyl]imidazol-4-yl]pyridine-4-carboxylic acid]	≤ 100 nM	≤ 100 nM	≤ 100 nM	≤ 100 nM	≤ 100 nM	> 10000 nM
O=C(O)c1ccnc(-c2cn(CCN3CCCC3)cn2)c1 [Example 43, 2-{1-[2-(pyrrolidin-1-yl)ethyl]-1H-imidazol-4-yl}pyridine-4-carboxylic acid]	≤ 100 nM	≤ 100 nM	≤ 100 nM	≤ 100 nM	1000 to 10000 nM	> 10000 nM
O=C(O)c1ccnc(-c2cn(CCN3CCCc4ccccc43)cn2)c1 [Example 88, 2-[1-[2-(3,4-dihydro-2H-quinolin-1-yl)ethyl]imidazol-4-yl]pyridine-4-carboxylic acid]	≤ 100 nM	≤ 100 nM	100 to 1000 nM	≤ 100 nM	≤ 100 nM	1000 to 10000 nM
Cc1ccccc1CCn1cnc(-c2cc(C(=O)O)ccn2)c1 [Example 96, 2-[1-[2-(2-methylphenyl)ethyl]imidazol-4-yl]pyridine-4-carboxylic acid]	≤ 100 nM	≤ 100 nM	100 to 1000 nM	100 to 1000 nM	≤ 100 nM	1000 to 10000 nM
CC(C)(Cn1cnc(-c2cc(C(=O)O)ccn2)c1)c1ccccc1Cl [Example 105, 2-[1-[2-(2-chlorophenyl)-2-methylpropyl]imidazol-4-yl]pyridine-4-carboxylic acid]	≤ 100 nM	≤ 100 nM	1000 to 10000 nM	100 to 1000 nM	≤ 100 nM	1000 to 10000 nM

The remaining lines, values ahead:

IC50 (Jarid1A)	IC50 (Jarid1B)	IC50 (JMJD2C)	IC50 (JMJD2A)	IC50 (FBXL10)	IC50 (KDM5A and KDM5B)	Compound
≤ 100 nM	≤ 100 nM	100 to 1000 nM	≤ 100 nM	≤ 100 nM	1000 to 10000 nM	O=C(O)c1ccnc(-c2cn(CCc3ccccc3Cl)cn2)c1 [Example 97, 2-[1-[2-(2-chlorophenyl)ethyl]imidazol-4-yl]pyridine-4-carboxylic acid]
≤ 100 nM	≤ 100 nM	≤ 100 nM	≤ 100 nM	≤ 100 nM	1000 to 10000 nM	O=C(O)c1ccnc(-c2cn(CCN(Cc3ccc(F)cc3)C3CC3)cn2)c1 [Example 71, 2-[1-[2-[cyclopropyl-[(4-fluorophenyl)methyl]amino]ethyl]imidazol-4-yl]pyridine-4-carboxylic acid]
≤ 100 nM	≤ 100 nM	100 to 1000 nM	100 to 1000 nM	≤ 100 nM	1000 to 10000 nM	Cn1cnc(-c2cc(C(=O)O)ccn2)c1-c1ccc(F)cc1 [Example 23, 2-[5-(4-fluorophenyl)-1-methyl-1H-imidazol-4-yl]pyridine-4-carboxylic acid]
